Assay results taken from US8013156B2 (Exelixis, Inc., priority 2003, dated 2011).

Each compound was assayed against Tie-2 (Homo sapiens, UniProt Q02763) (assay: Tie-2 tyrosine kinase activity assay (luciferase/luciferin ATP consumption with pEY substrate, or 33P-ATP incorporation)). Conditions: human enzyme Tie-2.
Assay type: biochemical
Procedure, shortened: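 Values are IC50 categories (A <50 nM to D ≥10,000 nM), with Ki obtainable by fitting rates to a tight-binding model. Assay formats: 33P-ATP phosphate transfer to adsorbed generic substrate counted by scintillation, or luciferase-detected ATP depletion using pEY.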

Tie-2, sequence (Q02763 23-1124): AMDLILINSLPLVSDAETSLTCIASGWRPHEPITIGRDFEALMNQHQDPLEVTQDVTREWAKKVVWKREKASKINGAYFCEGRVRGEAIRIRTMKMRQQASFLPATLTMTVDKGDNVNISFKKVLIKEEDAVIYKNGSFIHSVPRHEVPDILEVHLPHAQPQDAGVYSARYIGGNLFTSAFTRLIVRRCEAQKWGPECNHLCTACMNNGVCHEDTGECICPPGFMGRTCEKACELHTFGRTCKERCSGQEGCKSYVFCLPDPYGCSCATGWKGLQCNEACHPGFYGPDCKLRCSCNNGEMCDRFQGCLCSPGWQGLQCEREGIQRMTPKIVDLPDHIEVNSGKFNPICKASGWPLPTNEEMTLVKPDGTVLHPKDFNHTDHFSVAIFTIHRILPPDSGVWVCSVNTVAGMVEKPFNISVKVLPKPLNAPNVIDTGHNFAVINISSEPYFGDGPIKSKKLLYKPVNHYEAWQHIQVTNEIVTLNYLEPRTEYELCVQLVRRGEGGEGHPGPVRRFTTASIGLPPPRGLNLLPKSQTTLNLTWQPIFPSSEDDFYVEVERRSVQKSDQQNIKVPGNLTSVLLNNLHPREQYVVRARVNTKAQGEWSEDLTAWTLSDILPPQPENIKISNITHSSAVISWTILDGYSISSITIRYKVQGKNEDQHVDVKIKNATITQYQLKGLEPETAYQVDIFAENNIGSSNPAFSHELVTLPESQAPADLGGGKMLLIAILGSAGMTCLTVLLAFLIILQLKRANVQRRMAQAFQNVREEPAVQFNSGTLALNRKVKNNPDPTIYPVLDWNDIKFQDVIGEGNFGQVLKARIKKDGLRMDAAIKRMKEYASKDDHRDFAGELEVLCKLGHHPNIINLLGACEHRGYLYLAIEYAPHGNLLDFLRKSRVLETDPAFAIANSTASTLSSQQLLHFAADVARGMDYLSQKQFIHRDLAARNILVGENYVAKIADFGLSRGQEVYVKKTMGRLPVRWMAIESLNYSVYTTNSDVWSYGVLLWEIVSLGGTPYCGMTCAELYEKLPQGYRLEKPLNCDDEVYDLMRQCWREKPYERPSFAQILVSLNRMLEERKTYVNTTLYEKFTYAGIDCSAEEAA

IC50, < 50 nM:
O=C(Nc1cc(C(F)(F)F)cc(C(F)(F)F)c1)N1CCN(c2nsnc2OCc2ccnc(Nc3ccccc3)n2)CC1 [Example 118, N-[3,5-bis(trifluoromethyl)phenyl]-4-[4-({[2-(phenylamino)pyrimidin-4-yl]methyl}oxy)-1,2,5-thiadiazol-3-yl]piperazine-1-carboxamide]
CCNc1nccc(COc2nsnc2N2CCN(C(=O)Nc3cc(C(F)(F)F)cc(C(F)(F)F)c3)CC2)n1 [Example 121, N-[3,5-bis(trifluoromethyl)phenyl]-4-[4-({[2-(ethylamino)pyrimidin-4-yl]methyl}oxy)-1,2,5-thiadiazol-3-yl]piperazine-1-carboxamide]
O=C(Nc1cc(C(F)(F)F)cc(C(F)(F)F)c1)N1CCN(c2nsnc2OCc2ccnc(NC3CC3)n2)CC1 [Example 123, N-[3,5-bis(trifluoromethyl)phenyl]-4-[4-({[2-(cyclopropylamino)pyrimidin-4-yl]methyl}oxy)-1,2,5-thiadiazol-3-yl]piperazine-1-carboxamide]
CC(=O)Nc1nccc(COc2nsnc2N2CCN(C(=O)Nc3cc(C(F)(F)F)cc(C(F)(F)F)c3)CC2)n1 [Example 124, 4-[4-({[2-(acetylamino)pyrimidin-4-yl]methyl}oxy)-1,2,5-thiadiazol-3-yl]-N-[3,5-bis(trifluoromethyl)phenyl]piperazine-1-carboxamide]
CC(=O)Nc1cc(COc2nsnc2N2CCN(C(=O)Nc3cc(C(F)(F)F)cc(C(F)(F)F)c3)CC2)ccn1 [Example 129, 4-[4-({[2-(acetylamino)pyridin-4-yl]methyl}oxy)-1,2,5-thiadiazol-3-yl]-N-[3,5-bis(trifluoromethyl)phenyl]piperazine-1-carboxamide]
COC(=O)Nc1nccc(COc2nsnc2N2CCN(C(=O)Nc3cc(C(F)(F)F)cc(C(F)(F)F)c3)CC2)n1 [Example 131, methyl {4-[({4-[4-({[3,5-bis(trifluoromethyl)phenyl]amino}carbonyl)piperazin-1-yl]-1,2,5-thiadiazol-3-yl}oxy)methyl]pyrimidin-2-yl}carbamate]
CCc1cccc(NC(=O)N2CCN(c3nsnc3OCc3ccnc(NC(=O)OC)c3)CC2)c1 [Example 133, methyl [4-({[4-(4-{[(3-ethylphenyl)amino]carbonyl}piperazin-1-yl)-1,2,5-thiadiazol-3-yl]oxy}methyl)pyridin-2-yl]carbamate]
Nc1nccc(COc2nccnc2N2CCN(C(=O)Nc3cc(C(F)(F)F)cc(C(F)(F)F)c3)CC2)n1 [Example 135, 4-(3-{[(2-aminopyrimidin-4-yl)methyl]oxy}pyrazin-2-yl)-N-[3,5-bis(trifluoromethyl)phenyl]piperazine-1-carboxamide]

IC50, 50 to 1000 nM:
CC(C)Nc1nccc(COc2nsnc2N2CCN(C(=O)Nc3cc(C(F)(F)F)cc(C(F)(F)F)c3)CC2)n1 [Example 116, N-[3,5-bis(trifluoromethyl)phenyl]-4-{4-[({2-[(1-methylethyl)amino]pyrimidin-4-yl}methyl)oxy]-1,2,5-thiadiazol-3-yl}piperazine-1-carboxamide]
O=C(Nc1cc(C(F)(F)F)cc(C(F)(F)F)c1)N1CCN(c2nsnc2OCc2ccnc(NCc3ccccc3)n2)CC1 [Example 117, N-[3,5-bis(trifluoromethyl)phenyl]-4-{4-[({2-[(phenylmethyl)amino]pyrimidin-4-yl}methyl)oxy]-1,2,5-thiadiazol-3-yl}piperazine-1-carboxamide]
CN(C)CCNc1nccc(COc2nsnc2N2CCN(C(=O)Nc3cc(C(F)(F)F)cc(C(F)(F)F)c3)CC2)n1 [Example 119, N-[3,5-bis(trifluoromethyl)phenyl]-4-(4-{[(2-{[2-(dimethylamino)ethyl]amino}pyrimidin-4-yl)methyl]oxy}-1,2,5-thiadiazol-3-yl)piperazine-1-carboxamide]
CN(C)CCNc1cc(COc2nsnc2N2CCN(C(=O)Nc3cc(C(F)(F)F)cc(C(F)(F)F)c3)CC2)ccn1 [Example 120, N-[3,5-bis(trifluoromethyl)phenyl]-4-(4-{[(2-{[2-(dimethylamino)ethyl]amino}pyridin-4-yl)methyl]oxy}-1,2,5-thiadiazol-3-yl)piperazine-1-carboxamide]
CCCNc1nccc(COc2nsnc2N2CCN(C(=O)Nc3cc(C(F)(F)F)cc(C(F)(F)F)c3)CC2)n1 [Example 122, N-[3,5-bis(trifluoromethyl)phenyl]-4-[4-({[2-(propylamino)pyrimidin-4-yl]methyl}oxy)-1,2,5-thiadiazol-3-yl]piperazine-1-carboxamide]
O=C(Nc1nccc(COc2nsnc2N2CCN(C(=O)Nc3cc(C(F)(F)F)cc(C(F)(F)F)c3)CC2)n1)c1ccccc1 [Example 126, N-[3,5-bis(trifluoromethyl)phenyl]-4-{4-[({2-[(phenylcarbonyl)amino]pyrimidin-4-yl}methyl)oxy]-1,2,5-thiadiazol-3-yl}piperazine-1-carboxamide]
O=C(Nc1cc(C(F)(F)F)cc(C(F)(F)F)c1)N1CCN(c2nsnc2OCc2ccnc(NC3CCCC3)n2)CC1 [Example 128, N-[3,5-bis(trifluoromethyl)phenyl]-4-[4-({[2-(cyclopentylamino)pyrimidin-4-yl]methyl}oxy)-1,2,5-thiadiazol-3-yl]piperazine-1-carboxamide]
NC(=O)c1nccc(COc2nsnc2N2CCN(C(=O)Nc3cc(C(F)(F)F)cc(C(F)(F)F)c3)CC2)n1 [Example 136, 4-[({4-[4-({[3,5-bis(trifluoromethyl)phenyl]amino}carbonyl)piperazin-1-yl]-1,2,5-thiadiazol-3-yl}oxy)methyl]pyrimidine-2-carboxamide]

IC50, ≥ 10000 nM:
N#Cc1nccc(COc2nsnc2N2CCN(C(=O)Nc3cc(C(F)(F)F)cc(C(F)(F)F)c3)CC2)n1 [Example 134, N-[3,5-bis(trifluoromethyl)phenyl]-4-(4-{[(2-cyanopyrimidin-4-yl)methyl]oxy}-1,2,5-thiadiazol-3-yl)piperazine-1-carboxamide]
CCCCOc1nccc(COc2nsnc2N2CCN(C(=O)Nc3cc(C(F)(F)F)cc(C(F)(F)F)c3)CC2)n1 [Example 137, N-[3,5-bis(trifluoromethyl)phenyl]-4-[4-({[2-(butyloxy)pyrimidin-4-yl]methyl}oxy)-1,2,5-thiadiazol-3-yl]piperazine-1-carboxamide]

IC50, 1000 to 10000 nM:
O=C(Nc1cc(COc2nsnc2N2CCN(C(=O)Nc3cc(C(F)(F)F)cc(C(F)(F)F)c3)CC2)ccn1)c1ccccc1 [Example 125, N-[3,5-bis(trifluoromethyl)phenyl]-4-{4-[({2-[(phenylcarbonyl)amino]pyridin-4-yl}methyl)oxy]-1,2,5-thiadiazol-3-yl}piperazine-1-carboxamide]
O=C(Nc1cc(C(F)(F)F)cc(C(F)(F)F)c1)Nc1cc(COc2nsnc2N2CCN(C(=O)Nc3cc(C(F)(F)F)cc(C(F)(F)F)c3)CC2)ccn1 [Example 130, N-[3,5-bis(trifluoromethyl)phenyl]-4-{4-[({2-[({[3,5-bis(trifluoromethyl)phenyl]amino}carbonyl)amino]pyridin-4-yl}methyl)oxy]-1,2,5-thiadiazol-3-yl}piperazine-1-carboxamide]
